Reference: patent US10633375B2, “Oxopicolinamide derivative, preparation method therefor and pharmaceutical use thereof” (Jiangsu Hengrui Medicine Co., Ltd., priority 2016, dated 2020)

What was measured:
[1] = tested on: human blood; experiment: In vitro anticoagulant effect on human blood (APTT, CT2); settings: for CT2, concentration doubling APTT: concentration corresponding to 2 times the APTT of the blank control, human plasma
Protocol: Test Example 2: Determination of In Vitro Anticoagulant Effect of the Compounds of the Present Invention on Human Blood
1. Experimental Materials
Plasma: Human blood was collected in blood collection tubes containing no anticoagulant, and then 3.8% sodium citrate (volume ratio 1:9) was added. The tubes were centrifuged at 2500 rpm for 10 minutes at room temperature, and then the plasma was collected and stored at −80° C.;
Reagents: APTT reagent (Activated partial thromboplastin time assay kit, SIEMENS, Art. No. B4218-1), calcium chloride solution;
Instrument: Coagulation instrument (SYSMEX, CA-500).
The divided plasma was melted at room temperature and mixed well. 10000 μM the test compound dissolved in 100% DMSO was diluted to 3000, 300, 200, 150, 75, 30, 10, 3, 0.3 μM with 100% DMSO, and the blank was 100% DMSO. The reagent, plasma, and compound were placed in corresponding positions in the coagulation instrument, and APTT detection of the compound was carried out.
Curve fitting was carried out by graphpad and CT2 was calculated, i.e., the concentration of the compound corresponding to 2 times the APTT of the blank control.

[2] = molecular target: Coagulation Factor XIa protease (Homo sapiens (Human), UniProt P03951); experiment: Inhibition of Factor XIa detected by absorption photometry; format: biochemical; settings: absorbance at 405 nm, 10 minutes at 37° C.
How it was run: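 Compounds were serially diluted in 100% DMSO (200-0.002 μM dilution series) before addition to the wells. FXIa enzyme solution at 2.5 μg/ml and substrate solution at 2 mM were then added, both stock concentrations. After 10 min at 37° C., absorbance was read at 405 nm.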

[3] = Pharmacokinetics assay in rats after intragastrical administration; format: in vivo, Sprague-Dawley (SD) rats; settings: both sexes, Sprague-Dawley, rat, plasma, po, SD rats, intragastric, 2 mg/kg; for Vd/F: read-out: Apparent Distribution Volume Vz/F; for AUC: read-out: Area Under Curve AUC; for CL/F: read-out: Clearance CLz/F; for half-life: read-out: Half-Life T½ (converted); for MRT: read-out: Mean Residence Time MRT; for Cmax: read-out: Plasma Concentration Cmax
Description: Test Example 3. Pharmacokinetics Assay of the Compounds of the Present Invention
Rats were used as test animals. […] The pharmacokinetic behavior of the compounds of the present invention was studied and evaluated in rats.
56 healthy adult Sprague-Dawley (SD) rats, half male and half female, were purchased from SINO-BRITSH SIPPR/BK LAB. ANIMAL LTD., CO, with License No.: SCXK (Shanghai) 2008-0016.
2.3 Preparation of the Test Compounds
A certain amount of the test compound was weighed, and added with 5% by volume of DMSO, 5% by volume of Tween 80 and 90% normal saline to prepare a 0.2 mg/mL colorless, clear and transparent solution.
After an overnight fast, SD rats were intragastrically administered at a dose of 2.0 mg/kg and an administration volume of 10.0 mL/kg.
Blood (0.2 mL) was taken from the orbital sinus before administration and at 0.5, 1.0, 2.0, 4.0, 6.0, 8.0, 11.0 and 24.0 hours after administration. The samples were stored in heparin anticoagulation tubes, and centrifuged for 10 minutes at 3500 rpm at 4° C. to separate the blood plasma. The plasma samples were stored at −20° C. The rats were fed 2 hours after administration.
The content of the test compound in the plasma of rats after intragastric administration of different concentrations of the drug was determined: 25 μL of rat plasma at each time after administration was taken and added with 30 μL (100 ng/mL) of the internal standard solution of camptothecin and 200 μL of acetonitrile, shaken vertically for 5 minutes, and centrifuged for 10 minutes (4000 rpm). 3.0 μL of the supernatant was taken from the plasma samples for LC/MS/MS analysis.
4. Results of Pharmacokinetic Parameters
Pharmacokinetic parameters of the compounds of the present invention in rats are shown below.

Coagulation Factor XIa protease, sequence (P03951 388-625): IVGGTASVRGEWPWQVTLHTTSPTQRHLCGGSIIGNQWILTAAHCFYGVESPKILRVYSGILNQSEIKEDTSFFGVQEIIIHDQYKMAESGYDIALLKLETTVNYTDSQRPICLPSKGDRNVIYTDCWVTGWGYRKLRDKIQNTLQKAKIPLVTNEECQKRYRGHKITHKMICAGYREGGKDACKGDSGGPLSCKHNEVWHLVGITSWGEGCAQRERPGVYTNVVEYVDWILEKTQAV
Coagulation Factor XIa protease, sequence (P03951 19-387 partner): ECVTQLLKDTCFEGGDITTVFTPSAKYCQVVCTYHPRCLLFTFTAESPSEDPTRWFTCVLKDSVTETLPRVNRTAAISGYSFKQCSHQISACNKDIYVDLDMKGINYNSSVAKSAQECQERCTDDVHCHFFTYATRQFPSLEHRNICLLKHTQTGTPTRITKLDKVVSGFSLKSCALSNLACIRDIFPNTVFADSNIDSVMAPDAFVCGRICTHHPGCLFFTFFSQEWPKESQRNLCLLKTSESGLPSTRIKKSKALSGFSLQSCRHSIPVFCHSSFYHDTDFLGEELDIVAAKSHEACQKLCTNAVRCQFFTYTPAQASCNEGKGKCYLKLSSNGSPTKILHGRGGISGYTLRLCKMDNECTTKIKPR

| SMILES | IC50 [2] [nM] | CT2, concentration doubling APTT ([1]; Table 2) [µM] | also measured |
| --- | --- | --- | --- |
| CCC(=O)c1ccc(Cl)cc1-c1cc(=O)n([C@@H](Cc2ccccc2)C(=O)Nc2ccc(C(=O)O)cc2)cc1OC [Example 9, (S)-4-(2-(4-(5-chloro-2-propionylphenyl)-5-methoxy-2-oxopyridin-1(2H)-yl)-3-phenylpropanamido)benzoic acid] | 14 | 2.4 | Vd/F [3]: 31.5 ± 16.1 L/kg; AUC [3]: 701 ± 615 ng·h/mL; CL/F [3]: 69.8 ± 35.2 mL/min/kg; half-life [3]: 5.55 ± 1.79 h; MRT [3]: 6.78 ± 2.36 h; Cmax [3]: 128 ± 50 ng/mL |
| CCC(=O)c1ccc(Cl)cc1-c1cc(=O)n([C@@H](CCOC(C)(C)C)C(=O)Nc2ccc3nccnc3c2)cc1OC [Example 114, (S)-4-(tert-butoxy)-2-(4-(5-chloro-2-propionylphenyl)-5-methoxy-2-oxopyridin-1(2H)-yl)-N-(quinoxalin-6-yl)butanamide] | 27 | 3.6 | CT2, concentration doubling APTT ([1]; Table 3 comparison): 2.9 µM; CT2 value ratio, Example 114 versus comparative Example 2 ([1]; human blood, from Table 3): 4.5 times; Vd/F [3]: 24 ± 11.1 L/kg; AUC [3]: 168 ± 102 ng·h/mL; CL/F [3]: 278 ± 182 mL/min/kg; half-life [3]: 1.11 ± 0.25 h; MRT [3]: 1.67 ± 0.23 h; Cmax [3]: 91.2 ± 51.3 ng/mL |
| COc1cn([C@@H](Cc2ccccc2)C(=O)Nc2ccc(C(=O)O)cc2)c(=O)cc1-c1c(C(C)=O)ccc(Cl)c1F [Example 31, (S)-4-(2-(4-(6-acetyl-3-chloro-2-fluorophenyl)-5-methoxy-2-oxopyridin-1(2H)-yl)-3-phenylpropanamido)benzoic acid] |  | 8.5 | Vd/F [3]: 21.6 ± 6.31 L/kg; AUC [3]: 414 ± 77 ng·h/mL; CL/F [3]: 82.5 ± 14.6 mL/min/kg; half-life [3]: 3.2 ± 1.41 h; MRT [3]: 3.24 ± 0.93 h; Cmax [3]: 234 ± 66 ng/mL |
| COCCC(C(=O)Nc1ccc2[nH]c(C(=O)O)cc2c1)n1cc(OC)c(-c2cc(Cl)ccc2C(C)=O)cc1=O (stereo not shown) [Example 1, 5-(2-(4-(2-acetyl-5-chlorophenyl)-5-methoxy-2-oxopyridin-1(2H)-yl)-4-methoxybutanamido)-1H-indole-2-carboxylic acid] | 34 | 4.4 |  |
| COCC[C@@H](C(=O)Nc1ccc2[nH]c(C(=O)O)cc2c1)n1cc(OC)c(-c2cc(Cl)ccc2C(C)=O)cc1=O [Example 2, (S)-5-(2-(4-(2-acetyl-5-chlorophenyl)-5-methoxy-2-oxopyridin-1(2H)-yl)-4-methoxybutanamido)-1H-indole-2-carboxylic acid] | 19 | 2.9 |  |
| COc1cn([C@H](CCOC2CCC2)C(=O)Nc2ccc(C(=O)O)cc2)c(=O)cc1-c1cc(Cl)ccc1C(C)=O [Example 163, (R)-4-(2-(4-(2-acetyl-5-chlorophenyl)-5-methoxy-2-oxopyridin-1 (2H)-yl)-4-cyclobutoxybutanamido)benzoic acid] | 9110 | >10000 |  |
| COc1cn([C@@H](Cc2ccccc2)C(=O)Nc2ccc3nn(C)cc3c2)c(=O)cc1-c1cc(Cl)ccc1C(C)=O [Example 20, (S)-2-(4-(2-acetyl-5-chlorophenyl)-5-methoxy-2-oxopyridin-1(2H)-yl)-N-(2-methyl-2H-indazol-5-yl)-3-phenylpropanamide] | 36 | 6.5 |  |
| CCC(=O)c1ccc(Cl)cc1-c1cc(=O)n(C(Cc2ccccc2)C(=O)Nc2ccc(C(=O)O)cc2)cc1OC (stereo not shown) [Example 8, 4-(2-(4-(5-chloro-2-propionylphenyl)-5-methoxy-2-oxopyridin-1(2H)-yl)-3-phenylpropanamido)benzoic acid] | 17 | 6.4 |  |

Now from value to molecule, other results behind:

| IC50 [2] [nM] | SMILES | CT2, concentration doubling APTT ([1]; Table 2) [µM] | also measured |
| --- | --- | --- | --- |
| 32 | COc1cn(C(Cc2ccn(C3CC3)n2)C(=O)Nc2ccc3nccnc3c2)c(=O)cc1-c1cc(Cl)ccc1C(C)=O (stereo not shown) [Example 96, 2-(4-(2-acetyl-5-chlorophenyl)-5-methoxy-2-oxopyridin-1(2H)-yl)-3-(1-cyclopropyl-1H-pyrazol-3-yl)-N-(quinoxalin-6-yl)propanamide] | 6.7 |  |
| 42 | COc1cn([C@@H](Cc2cccc(C#N)c2)C(=O)Nc2ccc(C(=O)O)cc2)c(=O)cc1-c1cc(Cl)ccc1C(C)=O [Example 89, (S)-4-(2-(4-(2-acetyl-5-chlorophenyl)-5-methoxy-2-oxopyridin-1(2H)-yl)-3-(3-cyanophenyl)propanamido)benzoic acid] | 5.7 |  |
| 35 | COc1cn(C(Cc2ccn(C)n2)C(=O)Nc2ccc(C(=O)O)cc2)c(=O)cc1-c1cc(Cl)ccc1C(C)=O (stereo not shown) [Example 100, 4-(2-(4-(2-acetyl-5-chlorophenyl)-5-methoxy-2-oxopyridin-1(2H)-yl)-3-(1-methyl-1H-pyrazol-3-yl)propanamido)benzoic acid] | 3.3 |  |
| 2680 | COc1cn([C@H](Cc2ccccn2)C(=O)Nc2ccc(C(=O)O)cc2)c(=O)cc1-c1cc(Cl)ccc1C(C)=O [Example 81, (R)-4-(2-(4-(2-acetyl-5-chlorophenyl)-5-methoxy-2-oxopyridin-1(2H)-yl)-3-(pyridin-2-yl)propanamido)benzoic acid] | >10000 |  |
| 42 | COc1cn(C(Cc2ccn(C3CC3)n2)C(=O)Nc2ccc(C(=O)O)cc2)c(=O)cc1-c1cc(Cl)ccc1C(C)=O (stereo not shown) [Example 93, 4-(2-(4-(2-acetyl-5-chlorophenyl)-5-methoxy-2-oxopyridin-1(2H)-yl)-3-(1-cyclopropyl-1H-pyrazol-3-yl)propanamido)benzoic acid] | 2.9 |  |
| 24 | COc1cn([C@@H](Cc2ccn(C3CC3)n2)C(=O)Nc2ccc(C(=O)O)cc2)c(=O)cc1-c1cc(Cl)ccc1C(C)=O [Example 94, (S)-4-(2-(4-(2-acetyl-5-chlorophenyl)-5-methoxy-2-oxopyridin-1(2H)-yl)-3-(1-cyclopropyl-1H-pyrazol-3-yl)propanamido)benzoic acid] | 2.2 |  |
| 8150 | COc1cn([C@H](Cc2cnn(C)c2)C(=O)Nc2ccc(C(=O)O)cc2)c(=O)cc1-c1cc(Cl)ccc1C(C)=O [Example 104, (R)-4-(2-(4-(2-acetyl-5-chlorophenyl)-5-methoxy-2-oxopyridin-1 (2H)-yl)-3-(1-methyl-1H-pyrazol-4-yl)propanamido)benzoic acid] | >10000 |  |
| 40 | COc1cn(C(Cc2ccn(C3CC3)n2)C(=O)Nc2ccc3ncncc3c2)c(=O)cc1-c1cc(Cl)ccc1C(C)=O (stereo not shown) [Example 98, 2-(4-(2-acetyl-5-chlorophenyl)-5-methoxy-2-oxopyridin-1(2H)-yl)-3-(1-cyclopropyl-1H-pyrazol-3-yl)-N-(quinazolin-6-yl)propanamide] | 7.6 |  |
| 29 | CCC(=O)c1ccc(Cl)cc1-c1cc(=O)n(C(Cc2ccn(C)n2)C(=O)Nc2ccc(C(=O)O)cc2)cc1OC (stereo not shown) [Example 99, 4-(2-(4-(5-chloro-2-propionylphenyl)-5-methoxy-2-oxopyridin-1(2H)-yl)-3-(1-methyl-1H-pyrazol-3-yl)propanamido)benzoic acid] | 3.5 |  |
| 92 | COc1cn([C@@H](Cc2ccccn2)C(=O)Nc2ccc(C(N)=O)cc2)c(=O)cc1-c1cc(Cl)ccc1C(C)=O [Example 85, (S)-4-(2-(4-(2-acetyl-5-chlorophenyl)-5-methoxy-2-oxopyridin-1(2H)-yl)-3-(pyridin-2-yl)propanamido)benzamide] | 6.5 |  |
